In patent US4504580A, “Antibiotics produced by fermentation of a novel strain of Streptomyces hygroscopicus” (Bristol-Myers Company, priority 1983, dated 1985):

How the values were obtained:
Proteus rettgeri A15167 = experiment: MIC by serial two-fold agar dilution, P. rettgeri A15167; assay type: cell-based; conditions: Table 7; Mueller-Hinton agar
Experimental: (§1) The minimum inhibitory concentrations (MIC) of Bu-2659A, B, C, D and E were determined for a variety of gram-positive and gram-negative bacteria by the serial two-fold agar dilution method using the Steer's multi-inoculating apparatus. The inoculum was standardized as a 10^4 dilution of an overnight culture of the test organisms in Heart Infusion Broth (Difco). […] Reference antibiotics utilized in these tests included commercially available neomycin as well as its components, neomycins B and C [as used herein, the term "neomycin" means the commercial product containing neomycins B and C at an approximate ratio of 7:3], paromomycin [the commercial product containing >90% of paromomycin I and <10% of paromomycin II] and ribostamycin.

[1] = system: Staphylococcus aureus 209P; experiment: MIC by serial two-fold agar dilution, S. aureus 209P; assay type: cell-based; conditions: Table 7; Mueller-Hinton agar
Experimental: as §1

Escherichia coli Juhl [2] = experiment: MIC by serial two-fold agar dilution, E. coli Juhl; assay type: cell-based; conditions: Table 7; Mueller-Hinton agar
Experimental: as §1

[3] = system: Pseudomonas aeruginosa A20601; experiment: MIC, aminoglycoside-resistant P. aeruginosa A20601; assay type: cell-based; conditions: Table 9; inactivating enzymes AAC(3)-I, APH(3')-II; Mueller-Hinton agar
Experimental: as §1

Proteus morganii A9553 = experiment: MIC by serial two-fold agar dilution, P. morganii A9553; assay type: cell-based; conditions: Table 7; Mueller-Hinton agar
Experimental: as §1

[4] = system: Staphylococcus aureus A20239; experiment: MIC, aminoglycoside-resistant S. aureus A20239; assay type: cell-based; conditions: Table 9; inactivating enzyme APH(3')-I,II; Mueller-Hinton agar
Experimental: as §1

[5] = system: Enterobacter cloacae A20364; experiment: MIC, aminoglycoside-resistant E. cloacae A20364; assay type: cell-based; conditions: Table 9; inactivating enzyme APH(3')-I; Mueller-Hinton agar
Experimental: as §1

Mycobacterium phlei = experiment: MIC by serial two-fold agar dilution, M. phlei; assay type: cell-based; conditions: Table 8; No. 1001 medium
Experimental: as §1

[6] = system: Bacillus subtilis PCI 219; experiment: MIC by serial two-fold agar dilution, B. subtilis PCI 219; assay type: cell-based; conditions: Table 7; Mueller-Hinton agar
Experimental: as §1

Escherichia coli JR88 = experiment: MIC, aminoglycoside-resistant E. coli JR88; assay type: cell-based; conditions: Table 9; inactivating enzyme AAC(3)-I; Mueller-Hinton agar
Experimental: as §1

Acute toxicity in mice = assay type: in vivo; conditions: mice
Experimental: The acute toxicity of Bu-2659A was determined in mice by intravenous, intraperitoneal and subcutaneous routes. Neomycin also was tested for comparison purposes. […] The toxicity of Bu-2659A was approximately 1/3 that of neomycin in terms of LD50 values, thus presenting a potential clinical advantage for Bu-2659A.

[7] = system: Pseudomonas aeruginosa A20896; experiment: MIC, aminoglycoside-resistant P. aeruginosa A20896; assay type: cell-based; conditions: Table 9; inactivating enzyme AAC(3)-II; Mueller-Hinton agar
Experimental: as §1

[8] = system: Escherichia coli JR66/W677; experiment: MIC, aminoglycoside-resistant E. coli JR66/W677; assay type: cell-based; conditions: Table 9; inactivating enzymes APH(3')-II, ANT(2"); Mueller-Hinton agar
Experimental: as §1

[9] = system: Neisseria meningitidis A21496; experiment: MIC by serial two-fold agar dilution, N. meningitidis A21496; assay type: cell-based; conditions: Table 8; GC medium
Experimental: as §1

[10] = system: Pseudomonas aeruginosa A9930; experiment: MIC by serial two-fold agar dilution, P. aeruginosa A9930; assay type: cell-based; conditions: Table 7; Mueller-Hinton agar
Experimental: as §1

Proteus vulgaris A9436 = experiment: MIC by serial two-fold agar dilution, P. vulgaris A9436; assay type: cell-based; conditions: Table 7; Mueller-Hinton agar
Experimental: as §1

[11] = system: Mycobacterium smegmatis 607; experiment: MIC by serial two-fold agar dilution, M. smegmatis 607; assay type: cell-based; conditions: Table 8; No. 1001 medium
Experimental: as §1

[12] = system: Haemophilus influenzae A9729; experiment: MIC by serial two-fold agar dilution, H. influenzae A9729; assay type: cell-based; conditions: Table 8; GC medium
Experimental: as §1

[13] = system: Streptococcus pyogenes A20201; experiment: MIC by serial two-fold agar dilution, S. pyogenes A20201; assay type: cell-based; conditions: Table 8; GC medium
Experimental: as §1

[14] = system: Staphylococcus aureus D136; experiment: MIC by serial two-fold agar dilution, S. aureus D136; assay type: cell-based; conditions: Table 7; Mueller-Hinton agar
Experimental: as §1

[15] = system: Micrococcus luteus PCI 1001; experiment: MIC by serial two-fold agar dilution, M. luteus PCI 1001; assay type: cell-based; conditions: Table 7; Mueller-Hinton agar
Experimental: as §1

Escherichia coli Juhl [16] = experiment: Experimental systemic infection in mice, E. coli Juhl; assay type: in vivo; conditions: im, single treatment, 4 days
Experimental: (§2) The in vivo activity of Bu-2659A was assessed by experimental systemic infection in mice. The pathogenic bacteria used in the in vivo tests were E. coli Juhl, K. pneumoniae D-11, P. mirabilis A9906, S. aureus Smith and S. pyogenes A20201. Mice were challenged intraperitoneally with approximately 100×LD50 dose of the pathogens in a 5% suspension of hog gastric mucin (American Laboratories, Omaha, Neb.). A single intramuscular treatment with the antibiotic was given immediately after the bacterial challenge. […] Neomycin was comparatively tested as a reference compound. […] In terms of PD50 value Bu-2659A was about one-half as active as neomycin against infections with S. aureus and S. pyogenes.

Micrococcus flavus D12 = experiment: MIC by serial two-fold agar dilution, M. flavus D12; assay type: cell-based; conditions: Table 7; Mueller-Hinton agar
Experimental: as §1

[17] = system: Neisseria gonorrhoeae A20143; experiment: MIC by serial two-fold agar dilution, N. gonorrhoeae A20143; assay type: cell-based; conditions: Table 8; GC medium
Experimental: as §1

Mycobacterium ranae = experiment: MIC by serial two-fold agar dilution, M. ranae; assay type: cell-based; conditions: Table 8; No. 1001 medium
Experimental: as §1

Proteus mirabilis A9906 [18] = experiment: MIC by serial two-fold agar dilution, P. mirabilis A9906; assay type: cell-based; conditions: Table 7; Mueller-Hinton agar
Experimental: as §1

Proteus mirabilis A9554 = experiment: MIC by serial two-fold agar dilution, P. mirabilis A9554; assay type: cell-based; conditions: Table 7; Mueller-Hinton agar
Experimental: as §1

[19] = system: Staphylococcus aureus Smith; experiment: Experimental systemic infection in mice, S. aureus Smith; assay type: in vivo; conditions: im, single treatment, 4 days
Experimental: as §2

[20] = system: Pseudomonas aeruginosa D15; experiment: MIC by serial two-fold agar dilution, P. aeruginosa D15; assay type: cell-based; conditions: Table 7; Mueller-Hinton agar
Experimental: as §1

[21] = system: Bacillus brevis IFO 12334; experiment: MIC, aminoglycoside-resistant B. brevis IFO 12334; assay type: cell-based; conditions: Table 9; inactivating enzyme ANT (4'); Mueller-Hinton agar
Experimental: as §1

[22] = system: species of Streptococcus and Mycobacterium; experiment: Antibacterial activity (MIC), overall, Streptococcus and Mycobacterium, Table 8; assay type: cell-based
Experimental: as §1

Proteus mirabilis A9906 [23] = experiment: Experimental systemic infection in mice, P. mirabilis A9906; assay type: in vivo; conditions: im, single treatment, 4 days
Experimental: as §2

Escherichia coli A20732 = experiment: MIC, aminoglycoside-resistant E. coli A20732; assay type: cell-based; conditions: Table 9; inactivating enzyme ANT(2"); Mueller-Hinton agar
Experimental: as §1

[24] = system: Streptococcus pyogenes A20201; experiment: Experimental systemic infection in mice, S. pyogenes A20201; assay type: in vivo; conditions: im, single treatment, 4 days
Experimental: as §2

[25] = system: Klebsiella pneumoniae D-11; experiment: Experimental systemic infection in mice, K. pneumoniae D-11; assay type: in vivo; conditions: im, single treatment, 4 days
Experimental: as §2

Escherichia coli ML 1630 = experiment: MIC, aminoglycoside-resistant E. coli ML 1630; assay type: cell-based; conditions: Table 9; inactivating enzyme APH(3')-I; Mueller-Hinton agar
Experimental: as §1

[26] = system: Escherichia coli NR79/W677; experiment: MIC, aminoglycoside-resistant E. coli NR79/W677; assay type: cell-based; conditions: Table 9; inactivating enzyme AAC(6')-I; Mueller-Hinton agar
Experimental: as §1

[27] = system: Klebsiella pneumoniae D11; experiment: MIC by serial two-fold agar dilution, K. pneumoniae D11; assay type: cell-based; conditions: Table 7; Mueller-Hinton agar
Experimental: as §1

[28] = system: Serratia marcescens A20019; experiment: MIC by serial two-fold agar dilution, S. marcescens A20019; assay type: cell-based; conditions: Table 7; Mueller-Hinton agar
Experimental: as §1

[29] = system: Escherichia coli JR35/C600; experiment: MIC, aminoglycoside-resistant E. coli JR35/C600; assay type: cell-based; conditions: Table 9; inactivating enzyme APH(3')-I; Mueller-Hinton agar
Experimental: as §1

[30] = system: Streptococcus pneumoniae Type I; experiment: MIC by serial two-fold agar dilution, S. pneumoniae Type I; assay type: cell-based; conditions: Table 8; GC medium
Experimental: as §1

Escherichia coli NIHJ = experiment: MIC by serial two-fold agar dilution, E. coli NIHJ; assay type: cell-based; conditions: Table 7; Mueller-Hinton agar
Experimental: as §1

[31] = system: Staphylococcus aureus Smith; experiment: MIC by serial two-fold agar dilution, S. aureus Smith; assay type: cell-based; conditions: Table 7; Mueller-Hinton agar
Experimental: as §1

Escherichia coli A20107 = experiment: MIC, aminoglycoside-resistant E. coli A20107; assay type: cell-based; conditions: Table 9; inactivating enzyme APH(3')-II; Mueller-Hinton agar
Experimental: as §1

neomycin
MIC (Proteus rettgeri A15167): 1.6 µg/mL | MIC [1]: 0.4 µg/mL | MIC (Escherichia coli Juhl [2]): 3.1 µg/mL | MIC [3]: 12.5 µg/mL | MIC (Proteus morganii A9553): 3.1 µg/mL | MIC [4]: 25 µg/mL | MIC [5]: > 100 µg/mL | MIC (Mycobacterium phlei): 0.2 µg/mL | MIC [6]: < 0.05 µg/mL | MIC (Escherichia coli JR88): 1.6 µg/mL | LD50 (Acute toxicity in mice; intraperitoneal): 180 mg/kg | LD50 (Acute toxicity in mice; intravenous): 34 mg/kg | LD50 (Acute toxicity in mice; subcutaneous): 280 mg/kg | MIC [7]: > 100 µg/mL | MIC [8]: > 100 µg/mL | MIC [9]: 400 µg/mL | MIC [10]: 3.1 µg/mL | MIC (Proteus vulgaris A9436): 0.8 µg/mL | MIC [11]: 0.4 µg/mL | MIC [12]: 400 µg/mL | MIC [13]: 12.5 µg/mL | MIC [14]: 0.8 µg/mL | MIC [15]: 0.8 µg/mL | PD50 (Escherichia coli Juhl [16]): 3.1 mg/kg | MIC (Micrococcus flavus D12): 3.1 µg/mL | MIC [17]: > 400 µg/mL | MIC (Mycobacterium ranae): 0.4 µg/mL | MIC (Proteus mirabilis A9906 [18]): 0.8 µg/mL | MIC (Proteus mirabilis A9554): 0.8 µg/mL | PD50 [19]: 0.31 mg/kg | MIC [20]: 3.1 µg/mL | MIC [21]: 25 µg/mL | activity against Streptococcus and Mycobacterium, in words [22]: equivalent activity | PD50 (Proteus mirabilis A9906 [23]): 1.8 mg/kg | MIC (Escherichia coli A20732): 0.8 µg/mL | PD50 [24]: 50 mg/kg | PD50 [25]: 0.9 mg/kg | MIC (Escherichia coli ML 1630): > 100 µg/mL | MIC [26]: 50 µg/mL | MIC [27]: 0.4 µg/mL | MIC [28]: 1.6 µg/mL | MIC [29]: > 100 µg/mL | MIC [30]: 25 µg/mL | MIC (Escherichia coli NIHJ): 1.6 µg/mL | MIC [31]: 0.8 µg/mL | MIC (Escherichia coli A20107): 100 µg/mL
